Laboratory results reported in US11549123B2, “Plant EPSP synthases and methods of use” (PIONEER HI-BRED INTERNATIONAL, INC., priority 2015, dated 2023).
Residue numbers refer to the chain shown, from its start. pKi: −log10 of the molar value.

What was measured:
Assay type in all cases: biochemical
[1] = biological target: T1, Zea mays EPSPS variant Zm-H6 (868-H6) with A76V (H6-A76V) (Zea mays, UniProt O24566, A1R/A3W/A415G/A71Q/A75V/D401G/E301S/E390G/G101A/I207L/K83R/L97C/T278A/T360S/T440Q/V437R); test: Rapid two-rate method for (kcat/KM)*KI, H6-A76V; conditions: [E] 0.07 uM, [Gly] 1000 uM
T1 sequence (O24566 with tags, fused parts or gaps A1R/A3W/A71Q/A75V/K83R/L97C/G101A/I207L/T278A/E301S/T360S/E390G/D401G/A415G/V437R/T440Q): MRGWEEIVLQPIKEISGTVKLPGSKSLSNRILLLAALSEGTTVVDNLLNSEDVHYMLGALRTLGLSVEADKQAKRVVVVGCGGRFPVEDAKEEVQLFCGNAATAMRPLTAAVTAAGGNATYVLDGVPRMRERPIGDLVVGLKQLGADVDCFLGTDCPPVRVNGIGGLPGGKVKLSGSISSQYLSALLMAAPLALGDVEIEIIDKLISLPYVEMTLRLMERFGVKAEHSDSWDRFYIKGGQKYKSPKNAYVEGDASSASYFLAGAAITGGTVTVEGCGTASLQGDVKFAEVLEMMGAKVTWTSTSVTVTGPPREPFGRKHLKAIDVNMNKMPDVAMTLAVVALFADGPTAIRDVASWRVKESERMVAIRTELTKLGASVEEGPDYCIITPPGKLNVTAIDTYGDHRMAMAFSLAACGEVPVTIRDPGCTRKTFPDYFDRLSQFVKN
From the text: There are several practical considerations for accurately estimating (kcat/KM)*KI with the rapid method. […] 2) The inhibitor concentration must be adjusted so as to obtain a degree of inhibition that minimally amplifies the error in the term v0-vi in Equation 3. If inhibition is too little, v0-vi will be small, and the error in the multiplier vi×v0/(v0-vi) will be large. […] 3) Substrate concentration should be set at the approximate KM of the parental variant(s), subject to the sensitivity of the assay. High substrate concentration obscures sensitivity to the inhibitor and reduces stringency for capturing improvements in KM. Depending on the necessity for speed, there exists opportunity for customizing enzyme and inhibitor concentrations. […] The rapid method was repeated for those and obtained data that correlated better with data obtained by substrate saturation analysis. For screening purposes however, that correlation step is not necessary. Conditions can be set so that variants with a pre-determined minimal fitness level are accurately quantified.
In Table 15, parameters above the heavy line for the rapid method were obtained under standard conditions. For variants shown below the heavy line, the rapid analysis was repeated with enzyme or glyphosate concentrations adjusted as needed to generate sufficient signal within the limits for linear initial rates.

[2] = biological target: T2, Zea mays EPSPS variant Zm-H6 (868-H6) (Zea mays, UniProt O24566, A1R/A3W/A415G/A71Q/D401G/E301S/E390G/G101A/I207L/K83R/L97C/T278A/T360S/T440Q/V437R); test: Substrate saturation analysis with glyphosate (Example 8), Zm-H6
T2 sequence (O24566 with tags, fused parts or gaps A1R/A3W/A71Q/K83R/L97C/G101A/I207L/T278A/E301S/T360S/E390G/D401G/A415G/V437R/T440Q): T1 sequence (O24566 with tags, fused parts or gaps A1R/A3W/A71Q/A75V/K83R/L97C/G101A/I207L/T278A/E301S/T360S/E390G/D401G/A415G/V437R/T440Q) with V76A
From the text: Generally, (kcat/KM)*KI is obtained by performing substrate saturation analysis in the absence and presence of inhibitor. However, that analysis takes longer. […] To validate the method, (kcat/KM)*KI was quantified using both methods—traditional (saturation) and the instant method (rapid), for variants of maize 5-enolpyruvylshikimate-3-phosphate synthase (EPSPS) and its competitive inhibitor, glyphosate.
The amino acid sequence of mature Zea mays EPSPS was obtained from GenBank entry CAA44974.1 (SEQ ID NO:2). A nucleotide sequence was created to add an N-terminal methionine and to optimize codon usage for expression in E. coli. The synthesized gene was cloned into an expression vector that provides a T7 promoter driving expression of the protein and a 10× N-terminal histidine tag. Variants selected for this study include native maize EPSPS and variants generated by a gene shuffling cascade described herein. […] Protein concentration was determined by absorbance at 280 nm using an extinction coefficient of 0.676 OD/mg/m L. The proteins were normalized to 0.5 mg/mL for assay.
EPSPS activity was determined by quantifying the phosphate generated by the reaction. […] The absorbance change that occurs was monitored continuously at 360 nm, where the extinction is 11,200 M-1 cm-1, with a Spectramax plate reader (Molecular Devices). […]

[3] = biological target: Zea mays EPSPS variant 224R 249V (Zea mays, UniProt O24566, K223R/Y248V); test: EPSPS reaction rate with or without 10 uM glyphosate, 224R 249V; conditions: pH 7; read-out: Reaction rate with 10 μM glyph, % no glyph; also: 50 µM PEP and S3P
Sequence of Zea mays EPSPS variant 224R 249V (O24566 entry or part of it K223R/Y248V): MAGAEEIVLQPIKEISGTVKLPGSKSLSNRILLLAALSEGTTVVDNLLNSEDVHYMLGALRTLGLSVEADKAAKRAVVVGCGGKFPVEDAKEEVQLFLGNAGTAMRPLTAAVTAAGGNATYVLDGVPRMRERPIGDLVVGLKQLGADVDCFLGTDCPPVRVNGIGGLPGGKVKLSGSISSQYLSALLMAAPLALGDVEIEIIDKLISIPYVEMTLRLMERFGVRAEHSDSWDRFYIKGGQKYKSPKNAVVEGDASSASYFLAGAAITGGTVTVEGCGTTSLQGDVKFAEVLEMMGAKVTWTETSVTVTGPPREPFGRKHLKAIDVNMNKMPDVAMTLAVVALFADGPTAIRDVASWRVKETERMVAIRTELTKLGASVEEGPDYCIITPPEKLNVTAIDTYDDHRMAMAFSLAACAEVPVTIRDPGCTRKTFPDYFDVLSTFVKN

Q: How did the “(kcat/KM)*KI” value [1] turn out when `O=C(O)CNCP(=O)(O)O` [glyphosate, N-phosphonomethylglycine] was run?
A: 2418

Q: What about the pKi [2] of the same compound?
A: 3.42

Q: And the “(kcat/KM)*KI” value ([2]; substrate saturation, Zm-H6)?
A: 3660

Q: And the activity at 10 µM [3]?
A: 3.09%
